Laboratory results as given in patent publication US11254696B2, “Dianilinopyrimidine compound for inhibiting kinase activity” (Shenzhen Targetrx, Inc., priority 2017, dated 2022).

Legend:
ALK [L1196M] = ALK [L1196M] (Homo sapiens, UniProt Q9UM73, L1196M); test: Kinase inhibition assay, ALK [L1196M]; type: biochemical
Protocol: (§1) Compound preparation: The test compounds were dissolved in DMSO to make 20 mM stock solutions. The compounds were diluted in DMSO to 0.1 mM (a dilution with 100 times the final concentration) before use, and a 3-fold series gradient dilution with 11 concentrations was made. Dilutions with 4 times of the final concentration were prepared by diluting with buffer when dosing.
(§2) Kinase assay: after preparing the buffer solution, the enzyme was mixed with pre-diluted compounds with different concentrations, and placed at room temperature for 30 minutes in duplicate. The corresponding substrate and ATP were added thereto and reacted at room temperature for 60 minutes (both a negative and a positive control were set). After the reaction, antibody was added for detection, and after incubation at room temperature for 60 minutes, Evnvision detection was carried out, and data was collected. Data was analyzed and fit according to XLfit5 software. IC50 was calculated by the following formula: (IC50=[(ABS test−ABS begin)/(ABS control−ABS begin)]×100).

ALK [WT] = ALK [WT] (Homo sapiens, UniProt Q9UM73); test: Kinase inhibition assay, ALK [WT]; type: biochemical
Protocol: as §1, §2

BaF3 parental = test: Cytotoxicity test (CellTiter-Glo), BaF3 parental; type: cell-based; details: Mus musculus, 72 hours, read-out: IC50(nM) parental (Ba/F3)
Protocol: (§3) The in vitro anti-proliferative activity of the compounds of the present disclosure against three types of cells that are cultured in vitro was tested by CellTiter-Glo method.
(§4) Cell lines: BaF3 parental; BaF3 [EML4-ALK] (From WuXi PharmaTech) and BaF3 [EMF4-AFK F1196M] (From WuXi PharmaTech); wherein, BaF3 parental was cultured in RPMI1640 medium containing 10 ng/ml IL-3, 10% fetal bovine serum, 100 U/ml penicillin, and 100 μg/ml streptomycin, BaF3 [EMF4-AFK] and BaF3 [EMF4-AFK F1196M] were cultured in RPMI1640 medium containing 10% fetal bovine serum, 100 U/ml penicillin, and 100 μg/ml streptomycin.
(§5) Reagents and materials: RPMI-1640 (GIBCO, Cat. No. A10491-01); fetal bovine serum (GIBCO, Cat. No. 10099141); 0.25% trypsin-EDTA (GIBCO, Cat. No. 25200); penicillin-streptomycin, liquid (GIBCO, Cat. No. 15140-122); DMSO (Sigma, Cat. No. D2650); CellTiter-Glo Test Kit (Promega, Cat. No. G7572), and 96-well plate (Corning, Cat. No. 3365).
(§6) 1. The test compounds were dissolved in DMSO to make stock solutions and subjected to a series gradient dilution to give solutions with 10-fold working concentration.
(§7) 2. The cells in the logarithmic growth phase were diluted with the culture solution to adjust to the specific cell concentration, 90 μi of cell suspension was added to the 96-well plate to make the cell density reach the specified concentration. The plate was incubated in a incubator at 37° C., containing 5% carbon dioxide gas overnight.
(§8) 3. 10 μl drug solutions were added to each well of the 96-well plate inoculated with cells. 10 concentrations of the compounds were tested starting from the highest concentration of 20 μM with a 3-fold series gradient dilution in duplicate.
(§9) 4. After continuously cultured for 72 hours, the cells were detected by CellTiter-Glo for the cell viability. The dose-effect curve was made using GraphPad Prism software and IC50 was calculated.

BaF3 [EML4-ALK] [1] = target: T1, BaF3 [EML4-ALK] (Homo sapiens, UniProt Q9UM73); test: Cytotoxicity test (CellTiter-Glo), BaF3 [EML4-ALK]; type: cell-based; details: 72 hours, CellTiter-Glo; read-out: IC50(nM) ALK (Ba/F3)
T1 construct: IC50(nM) ALK (Ba/F3); other: 72 hours, CellTiter-Glo; BaF3 [EML4-ALK]; fused on or other part: Q9HC35 (Echinoderm microtubule-associated protein-like 4)
Protocol: as §3, §4, §5, §6, §7, §8, §9

BaF3 [EML4-ALK] [2] = test: Cytotoxicity test (CellTiter-Glo), BaF3 [EML4-ALK]; type: cell-based; details: Ba/F3 cells
Protocol: as §3, §4, §5, §6, §7, §8, §9

[3] = Metabolic stability in human liver microsomes; type: in vitro ADME; details: pH 7.4, 1 μM compound, 0.5 mg/mL protein; for microsomal CLint at 1 μM: read-out: CLint (uL/min/mg), Human liver microsome experiment; for half-life at 1 μM: read-out: t1/2 (min), Human liver microsome experiment
Protocol: (§10) Experiments in microsomes: Human liver microsomes: 0.5 mg/mL, Xenotech; Rat liver microsomes: 0.5 mg/mL, Xenotech; Coenzyme (NADPH/NADH): 1 mM, Sigma Life Science; Magnesium chloride: 5 mM, 100 mM phosphate buffer (pH 7.4).
(§11) Preparation of stock solution: Powder of the example compounds was accurately weighed and dissolved in DMSO to 5 mM. Preparation of phosphate buffer (100 mM, pH7.4): A pre-formulated 0.5M potassium dihydrogen phosphate (150 mL) was mixed with 0.5M dibasic potassium phosphate (700 mL). The pH of the mixture was adjusted to 7.4 with 0.5M dibasic potassium phosphate solution. The mixture was diluted 5-fold with ultrapure water before use, and magnesium chloride was added to obtain a phosphate buffer (100 mM) containing 100 mM potassium phosphate, 3.3 mM magnesium chloride, pH7.4. A NADPH regeneration system solution (containing 6.5 mM NADP, 16.5 mM G-6-P, 3 U/mL G-6-PD, 3.3 mM magnesium chloride) was prepared and placed on wet ice prior to use. Preparation of stop solution: acetonitrile solution containing 50 ng/mL propranolol hydrochloride and 200 ng/mL tolbutamide (internal standard). 25057.5 μL of phosphate buffer (pH 7.4) was taken into a 50 mL centrifuge tube, to which 812.5 μL human liver microsomes were added, and mixed to obtain a liver microsome dilution solution with a protein concentration of 0.625 mg/mL. 25057.5 μL of phosphate buffer (pH 7.4) was taken into a 50 mL centrifuge tube, to which 812.5 μL SD rat liver microsomes were added, and mixed to obtain a liver microsome dilution solution with a protein concentration of 0.625 mg/mL.
(§12) Incubation of the samples: The stock solution of the respective compound was respectively diluted to 0.25 mM with an aqueous solution containing 70% acetonitrile, and used as a working solution, ready for use. 398 μL of the dilution solution of human liver microsomes or rat liver microsome were added to a 96-well incubation plate (N=2), respectively, and 2 μL of 0.25 mM working solution was added and mixed.
(§13) Metabolic stability assay: 300 μL of pre-chilled stop solution was added to each well of a 96-well deep well plate and placed on ice as a stop plate. The 96 well incubation plate and NADPH regeneration system were placed in a 37° C. water bath box, shaken at 100 rpm and pre-incubated for 5 min. 80 μL of incubation solution was taken out from each well of the incubation plate and added to the stop plate, mixed, and replenished with 20 μL of NADPH regeneration system solution as a 0-min sample. 80 μL of NADPH regeneration system solution was added to each well of the incubation plate to start the reaction and start counting. […] Separately, 100 μL of the reaction solution was taken at 10, 30, and 90 min reaction, respectively, added to a stop plate, and vortexed for 3 minutes to terminate the reaction. The stop plate was centrifuged at 5000×g at 4° C. for 4 min. 100 μL of the supernatant was added to a 96-well plate to which 100 μL of distilled water was previously added, mixed, and analyzed by LC-MS/MS.
(§14) Data analysis: The peak areas of the corresponding compound and internal standard were detected by LC-MS/MS system, and the ratio of the peak area of the compound to the internal standard was calculated.

[4] = Metabolic stability in rat liver microsomes; type: in vitro ADME; details: SD, pH 7.4, 1 μM compound, 0.5 mg/mL protein; for microsomal CLint at 1 μM: read-out: CLint (uL/min/mg), Rat liver microsome experiment; for half-life at 1 μM: read-out: t1/2 (min), Rat liver microsome experiment
Protocol: as §10, §11, §12, §13, §14

ALK[L1196M] (Ba/F3) [5] = target: T2, ALK[L1196M] (Ba/F3) (Homo sapiens, UniProt Q9UM73, L1196M, cells depend on it); test: Cytotoxicity test (CellTiter-Glo), BaF3 EML4-ALK L1196M; type: cell-based; details: 72 hours, CellTiter-Glo; read-out: IC50(nM) ALK[L1196M] (Ba/F3)
T2 construct: IC50(nM) ALK[L1196M]; (Ba/F3); other: 72 hours, CellTiter-Glo; BaF3 [EMF4-AFK F1196M]; fused on or other part: Q9HC35 (Echinoderm microtubule-associated protein-like 4)
Protocol: as §3, §4, §5, §6, §7, §8, §9

ALK[L1196M] (Ba/F3) [6] = test: as above; type: cell-based; details: Ba/F3 cells
Protocol: as §3, §4, §5, §6, §7, §8, §9

T1 sequence (Q9UM73 whole entry, change not shown, the tested form may be a part): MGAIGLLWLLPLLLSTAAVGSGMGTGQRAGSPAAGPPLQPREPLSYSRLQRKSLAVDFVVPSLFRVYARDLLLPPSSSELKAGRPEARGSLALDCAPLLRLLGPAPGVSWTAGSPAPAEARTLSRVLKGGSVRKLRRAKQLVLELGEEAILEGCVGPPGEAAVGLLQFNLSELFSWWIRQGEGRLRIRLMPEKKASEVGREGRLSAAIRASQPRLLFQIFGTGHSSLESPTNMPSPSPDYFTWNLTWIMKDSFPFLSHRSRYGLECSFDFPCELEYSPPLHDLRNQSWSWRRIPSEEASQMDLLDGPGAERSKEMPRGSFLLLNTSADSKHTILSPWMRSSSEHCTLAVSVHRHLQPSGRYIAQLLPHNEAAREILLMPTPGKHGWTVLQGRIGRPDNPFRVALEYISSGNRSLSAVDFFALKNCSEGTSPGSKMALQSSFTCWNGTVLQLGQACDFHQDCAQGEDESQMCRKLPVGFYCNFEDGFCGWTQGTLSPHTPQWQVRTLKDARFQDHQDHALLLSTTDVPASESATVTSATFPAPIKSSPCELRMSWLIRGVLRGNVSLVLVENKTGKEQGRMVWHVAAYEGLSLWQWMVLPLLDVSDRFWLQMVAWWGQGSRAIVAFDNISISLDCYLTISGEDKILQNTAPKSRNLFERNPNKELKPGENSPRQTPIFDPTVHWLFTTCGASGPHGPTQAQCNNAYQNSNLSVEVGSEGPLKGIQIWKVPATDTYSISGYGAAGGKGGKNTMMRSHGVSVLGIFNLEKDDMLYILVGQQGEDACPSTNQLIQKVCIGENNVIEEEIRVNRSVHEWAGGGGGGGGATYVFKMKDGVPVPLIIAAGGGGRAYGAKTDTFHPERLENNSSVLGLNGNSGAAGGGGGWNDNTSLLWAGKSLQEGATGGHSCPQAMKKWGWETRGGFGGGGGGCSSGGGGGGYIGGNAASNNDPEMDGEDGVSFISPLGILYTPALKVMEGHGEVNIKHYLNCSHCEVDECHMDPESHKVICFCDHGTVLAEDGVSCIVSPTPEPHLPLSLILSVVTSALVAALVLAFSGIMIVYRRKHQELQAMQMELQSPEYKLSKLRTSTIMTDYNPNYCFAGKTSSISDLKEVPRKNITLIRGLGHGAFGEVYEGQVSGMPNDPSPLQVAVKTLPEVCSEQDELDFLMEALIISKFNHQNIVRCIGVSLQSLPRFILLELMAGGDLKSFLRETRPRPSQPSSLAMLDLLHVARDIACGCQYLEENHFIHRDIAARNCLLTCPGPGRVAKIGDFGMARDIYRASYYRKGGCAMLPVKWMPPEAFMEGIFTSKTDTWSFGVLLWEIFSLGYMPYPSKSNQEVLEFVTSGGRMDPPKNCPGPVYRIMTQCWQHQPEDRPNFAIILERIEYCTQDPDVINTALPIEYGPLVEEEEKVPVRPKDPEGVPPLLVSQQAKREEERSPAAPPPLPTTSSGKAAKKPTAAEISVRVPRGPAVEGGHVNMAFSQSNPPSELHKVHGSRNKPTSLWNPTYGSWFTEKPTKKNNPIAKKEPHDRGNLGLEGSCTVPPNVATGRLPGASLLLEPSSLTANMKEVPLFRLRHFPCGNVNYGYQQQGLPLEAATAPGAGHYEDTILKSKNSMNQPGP
T2 sequence (Q9UM73 whole entry L1196M, the tested form may be a part): as the sequence (Q9UM73 whole entry, change not shown, the tested form may be a part) above, with L1196M counted along it
ALK [WT], sequence (Q9UM73 19-1620): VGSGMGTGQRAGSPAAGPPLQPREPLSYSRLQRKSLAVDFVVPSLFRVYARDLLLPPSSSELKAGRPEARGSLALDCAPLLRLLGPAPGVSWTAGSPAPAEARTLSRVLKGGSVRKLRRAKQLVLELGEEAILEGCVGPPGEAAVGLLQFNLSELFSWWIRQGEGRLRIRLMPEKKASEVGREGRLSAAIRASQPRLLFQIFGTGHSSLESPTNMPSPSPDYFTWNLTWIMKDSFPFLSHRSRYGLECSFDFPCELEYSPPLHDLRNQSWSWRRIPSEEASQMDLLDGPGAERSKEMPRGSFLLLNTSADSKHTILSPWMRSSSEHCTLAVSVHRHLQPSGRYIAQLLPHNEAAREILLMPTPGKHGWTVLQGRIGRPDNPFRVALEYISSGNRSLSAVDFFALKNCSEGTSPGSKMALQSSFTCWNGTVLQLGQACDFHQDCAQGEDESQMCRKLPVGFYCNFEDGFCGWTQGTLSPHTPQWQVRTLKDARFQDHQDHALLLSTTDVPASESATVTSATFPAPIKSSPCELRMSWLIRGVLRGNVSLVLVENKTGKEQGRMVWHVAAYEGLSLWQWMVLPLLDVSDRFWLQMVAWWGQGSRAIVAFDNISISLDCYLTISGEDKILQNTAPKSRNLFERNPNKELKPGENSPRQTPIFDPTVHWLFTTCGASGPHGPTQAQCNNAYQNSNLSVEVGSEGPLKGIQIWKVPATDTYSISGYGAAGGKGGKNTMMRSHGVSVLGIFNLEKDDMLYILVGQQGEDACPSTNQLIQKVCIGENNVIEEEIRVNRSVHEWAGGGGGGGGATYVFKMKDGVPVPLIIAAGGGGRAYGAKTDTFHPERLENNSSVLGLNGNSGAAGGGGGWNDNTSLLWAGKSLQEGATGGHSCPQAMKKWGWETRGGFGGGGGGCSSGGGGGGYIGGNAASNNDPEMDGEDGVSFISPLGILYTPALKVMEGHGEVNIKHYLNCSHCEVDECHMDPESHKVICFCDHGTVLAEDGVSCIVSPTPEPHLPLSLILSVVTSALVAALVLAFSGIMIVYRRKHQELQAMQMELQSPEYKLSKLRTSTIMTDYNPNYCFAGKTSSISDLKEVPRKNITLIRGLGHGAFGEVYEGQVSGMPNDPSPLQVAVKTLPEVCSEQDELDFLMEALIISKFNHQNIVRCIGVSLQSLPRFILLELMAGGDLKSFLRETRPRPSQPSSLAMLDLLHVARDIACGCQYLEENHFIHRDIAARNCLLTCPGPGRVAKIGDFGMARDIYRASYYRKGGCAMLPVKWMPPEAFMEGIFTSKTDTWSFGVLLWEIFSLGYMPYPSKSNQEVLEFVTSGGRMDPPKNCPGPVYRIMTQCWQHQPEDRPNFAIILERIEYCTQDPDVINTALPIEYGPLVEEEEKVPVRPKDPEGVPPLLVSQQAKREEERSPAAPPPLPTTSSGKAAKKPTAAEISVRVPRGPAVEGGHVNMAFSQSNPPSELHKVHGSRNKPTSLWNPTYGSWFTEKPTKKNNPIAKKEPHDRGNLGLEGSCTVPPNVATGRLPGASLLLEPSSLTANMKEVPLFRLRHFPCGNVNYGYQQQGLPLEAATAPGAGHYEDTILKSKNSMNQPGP
ALK [L1196M], sequence (Q9UM73 19-1620 L1196M): as the sequence (Q9UM73 19-1620) above, with L1178M counted along it

IC50 (ALK [L1196M]) | IC50 (ALK [WT]) | microsomal CLint at 1 μM [3] | half-life at 1 μM [3] | microsomal CLint at 1 μM [4] | half-life at 1 μM [4] | Compound | IC50 (BaF3 parental) | GI50 (BaF3 [EML4-ALK] [1]) | Selectivity parental/ALK (BaF3 [EML4-ALK] [2]) | GI50 (ALK[L1196M] (Ba/F3) [5]) | Selectivity parental/ALK[L1196M] (ALK[L1196M] (Ba/F3) [6])
5 to 10 nM | 5 to 10 nM | 10.6 µL/min/mg | 131 min | 43.4 µL/min/mg | 31.9 min | COc1cc(CN(C)C)ccc1Nc1ncc(Cl)c(Nc2ccccc2P(C)(C)=O)n1 [Example 1, (2-((5-chloro-2-((4-((dimethylamino)methyl)-2-methoxyphenyl)amino)pyrimidin-4-yl)amino)phenyl)dimethylphosphine oxide] | ≥ 1000 nM | 50 to 100 nM | <50 | 100 to 200 nM | <50
≤ 2 nM | ≤ 2 nM | 11.7 µL/min/mg | 119 min | 9.1 µL/min/mg | 152 min | COc1cc(C(C)(C)N)ccc1Nc1ncc(Cl)c(Nc2ccccc2P(C)(C)=O)n1 [Example 13, (2-((2-((4-(2-aminopropan-2-yl)-2-methoxyphenyl)amino)-5-chloropyrimidin-4-yl)amino)phenyl)dimethylphosphine oxide] | ≥ 1000 nM | 25 to 50 nM | <50 | 100 to 200 nM | <50
2 to 5 nM | 2 to 5 nM | 5.4 µL/min/mg | 259 min | 32.3 µL/min/mg | 42.9 min | COc1cc(CCN(C)C)c(C)cc1Nc1ncc(Cl)c(Nc2ccccc2P(C)(C)=O)n1 [Example 20, (2-((5-chloro-2-((4-(2-(dimethylamino)ethyl)-2-methoxy-5-methylphenyl)amino)pyrimidin-4-yl)amino)phenyl)dimethylphosphine oxide] | ≥ 1000 nM | 25 to 50 nM | 50 to 100 | 25 to 50 nM | 50 to 100
2 to 5 nM | 2 to 5 nM | 29.1 µL/min/mg | 47.6 min | 85.1 µL/min/mg | 16.3 min | COc1cc(CCN2CCOCC2)ccc1Nc1ncc(Cl)c(Nc2ccccc2P(C)(C)=O)n1 [Example 6, (2-((5-chloro-2-((2-methoxy-4-(2-morpholinoethyl)phenyl)amino)pyrimidin-4-yl)amino)phenyl)dimethylphosphine oxide] | ≥ 1000 nM | < 25 nM | 200 to 500 | 100 to 200 nM | <50
5 to 10 nM | 2 to 5 nM | 27.7 µL/min/mg | 50 min | 7.2 µL/min/mg | 193 min | CNCCc1cc(OC)c(Nc2ncc(Cl)c(Nc3ccccc3P(C)(C)=O)n2)cc1C [Example 21, (2-((5-chloro-2-((2-methoxy-5-methyl-4-(2-(methylamino)ethyl)phenyl)amino)pyrimidin-4-yl)amino)phenyl)dimethylphosphine oxide] | ≥ 1000 nM | 100 to 200 nM | <50 | 200 to 1000 nM | <50
2 to 5 nM | 2 to 5 nM | 25.2 µL/min/mg | 55 min | 15.1 µL/min/mg | 92 min | COc1cc(C(C)(C)CN)ccc1Nc1ncc(Cl)c(Nc2ccccc2P(C)(C)=O)n1 [Example 10, (2-((2-((4-(1-amino-2-methylpropan-2-yl)-2-methoxyphenyl)amino)-5-chloropyrimidin-4-yl)amino)phenyl)dimethylphosphine oxide] | ≥ 1000 nM | 25 to 50 nM | 100 to 200 | 100 to 200 nM | <50
